Consider 52 compounds from PubChem BioAssay AID1996.

One may read the kinetic solubility as the concentration staying in solution when a stock, usually in DMSO, is diluted into the medium.

In brackets after ≈: the same amount, converted by molar mass. Where only a bound is given, the exact number is not on record here.

The conditions of this series: buffer; pH 7.4; 200.0 µM.
For `O=C(NC1CCCCC1)C(=S)N1CCOCC1`, the solubility (kinetic) is > 38.5 µg/mL.

On to `Cc1ccnc(NC(=O)CSc2ccccn2)c1`, for which the solubility (kinetic) turned out to be 36.7 µg/mL (≈ 142 µM).

Compound `O=C(C1CC(=O)N(c2ccc(Cl)cc2)C1)N1CCOCC1` (configuration not stated) registered a solubility (kinetic) of 40 µg/mL (≈ 130 µM).

`O=C(COc1ccccc1Cl)NCCNC(=O)c1ccccn1`: the solubility (kinetic) was > 50.1 µg/mL.

In turn, `Fc1cccc(CN2CCC(Cc3ccccc3)CC2)c1` displayed a solubility (kinetic) of 13.5 µg/mL (≈ 47.6 µM).

Take `Cc1ccc(S(=O)(=O)NC2CC(C)(C)NC(C)(C)C2)c(C)c1C`: the solubility (kinetic) worked out at 42.6 µg/mL (≈ 126 µM).

For the compound `COCC(=O)N1CCN(c2nc3ccccc3o2)CC1`, the kinetic solubility was > 41.3 µg/mL.

As for `Nc1ccccc1C(=O)N1CCC(O)(c2ccc(Cl)cc2)CC1`, the kinetic solubility was determined as 23.9 µg/mL (≈ 72.2 µM).

For `Cc1ccc(-c2cc(C(=O)N3CCC(C)CC3)c3ccccc3n2)cc1`, the kinetic solubility was 6.6 µg/mL (≈ 19.2 µM).

With `CCOC(=O)c1ccc(NC(=S)NCc2ccco2)cc1`, the solubility (kinetic) was > 45.7 µg/mL.

In the case of `COc1ccc(S(=O)(=O)NCC2CCC(C(=O)O)CC2)cc1` (configuration not stated), the solubility (kinetic) was > 49.1 µg/mL.

Consider `COc1cccc(-c2csc(NC(=O)Nc3ccccc3)n2)c1`, for which the kinetic solubility was < 0.2 µg/mL.

Turning to `CN(C(=O)c1c[nH]c(=O)cc1C(F)(F)F)c1ccc(Cl)c(Cl)c1`, the solubility (kinetic) was found to be 40.8 µg/mL (≈ 112 µM).

Regarding `O=[N+]([O-])c1ccccc1NCc1ccccc1Cl`, the kinetic solubility was < 0.3 µg/mL.

Regarding `CC12CCC(C(=O)N3CCOCC3)([C@H](Br)C1=O)C2(C)C` (some centres not stated), the solubility (kinetic) is > 51.6 µg/mL.

With `Cc1nccn1Cc1ccc(Cl)nc1`, the solubility (kinetic) is > 31.1 µg/mL.

In turn, `Clc1ccc(/C=C/c2ncc[nH]2)c(Cl)c1` displayed a solubility (kinetic) of 7.7 µg/mL (≈ 32.2 µM).

Consider `CC(C)CC(NC(N)=O)C(=O)Nc1ccc2c(c1)OCO2` (configuration not stated), for which the solubility (kinetic) was > 44 µg/mL.

On to `CC(C)NC(=O)c1ccc(-n2c(=S)[nH]c3ccccc3c2=O)cc1`, for which the solubility (kinetic) stood at 3.9 µg/mL (≈ 11.5 µM).

Regarding `COc1ccc(C(O)c2ncc(C(F)(F)F)cc2Cl)cc1` (configuration not stated), the kinetic solubility is > 47.7 µg/mL.

For the compound `O=C(Nc1ccc(S(=O)(=O)Nc2ccccn2)cc1)C(F)(F)F`, the kinetic solubility was > 51.8 µg/mL.

Take `O=C(N/C(=C/c1cccs1)C(=O)N1CCCC1)c1ccccc1`: the solubility (kinetic) was 46.5 µg/mL (≈ 142 µM).

Regarding `O=C(c1ccncc1)N1CCN(CCc2ccccc2)CC1`, the solubility (kinetic) was > 44.3 µg/mL.

For `Cc1cccc(C)c1NC(=O)CN(C)C(=O)Cn1c(=O)cnc2ccccc21`, the solubility (kinetic) stood at 52.6 µg/mL (≈ 139 µM).

`O=C(Cn1c(=O)oc2ccccc21)Nc1ccc(Br)cc1` yielded a solubility (kinetic) of 2.1 µg/mL (≈ 6.05 µM).

Turning to `O=c1c2[nH]c3ccccc3c2nc2n1CCS2`, the solubility (kinetic) came out at 4.5 µg/mL (≈ 18.5 µM).

Compound `Cc1ccc(C(=O)OC(C)C(=O)NC2CCCCC2C)s1` (configuration not stated) gave a solubility (kinetic) of 14.6 µg/mL (≈ 47.2 µM).

As to `COCc1cc(=O)[nH]c(Cc2c(Cl)cccc2Cl)n1`, the kinetic solubility was determined as 1.7 µg/mL (≈ 5.68 µM).

`CCOC(=O)N1CCN(C(=O)c2cc3cc(Cl)ccc3[nH]2)CC1`: the kinetic solubility is 7 µg/mL (≈ 20.8 µM).

`N/C(=N\OC(=O)c1cccc(Br)c1)c1ccc([N+](=O)[O-])cc1`: the solubility (kinetic) amounted to 1.4 µg/mL (≈ 3.84 µM).

For `O=C(CNS(=O)(=O)c1ccccc1)N1CCCC1`, the solubility (kinetic) is > 40.2 µg/mL.

Consider `Cc1csc2c(=O)n(CCO)c(=O)[nH]c12`, for which the kinetic solubility is > 33.9 µg/mL.

As to `Cc1nc2cccc(C(=O)Oc3ccc([N+](=O)[O-])cc3)c2o1`, the solubility (kinetic) was determined as 10.1 µg/mL (≈ 33.9 µM).

With `CC(NCc1ccccc1)c1ccccc1O` (configuration not stated), the kinetic solubility is 27.2 µg/mL (≈ 120 µM).

For `Cc1ccc(S(=O)(=O)N2CCc3ccccc3C2CC(=O)O)cc1` (configuration not stated), the kinetic solubility is > 51.8 µg/mL.

`CN(C)C(=S)NC(=O)C12CC3CC(C)(CC(C)(C3)C1)C2` returned a kinetic solubility of 27.4 µg/mL (≈ 93.1 µM).

`O=C(c1ccccc1)c1ccc(OCC(=O)N2CCOCC2)cc1`: the kinetic solubility was > 48.8 µg/mL.

For `CSc1nc(-c2ccccc2)c(C#N)c(=O)[nH]1`, the kinetic solubility was > 36.5 µg/mL.

As for `CC(C)(C)c1ccc(NC(=O)COC(=O)C2CCCC2)cc1`, the kinetic solubility came out at 13.5 µg/mL (≈ 44.5 µM).

As to `O=S(=O)(Nc1ccc2c(c1)OCCO2)c1c(F)cccc1F`, the kinetic solubility stood at 47.8 µg/mL (≈ 146 µM).

For `O=S(=O)(c1ccc(Cl)cc1)n1cnc2ccccc21`, the solubility (kinetic) was > 43.9 µg/mL.

Regarding `Cc1ccc(C(=O)Nc2ccc3c(c2)OCCO3)c(C)c1`, the solubility (kinetic) is > 42.5 µg/mL.

Regarding `Cc1oc(C(C)(C)C)c(CN2CCOCC2)c1C(=O)O.Cl`, the kinetic solubility is > 47.7 µg/mL.

In turn, `CSc1nc(SCCN(C)C)c2c3c(sc2n1)COC(C)(C)C3` returned a kinetic solubility of 37.4 µg/mL (≈ 101 µM).

For `CN(C/C=C/c1ccccc1[N+](=O)[O-])Cc1ccccc1`, the solubility (kinetic) was 19.2 µg/mL (≈ 68 µM).

Turning to `CNC(=S)N(CCc1c(C)[nH]c2ccc(F)cc12)Cc1ccco1`, the kinetic solubility amounted to 3 µg/mL (≈ 8.68 µM). This solubility kinetic is about 6.4-fold lower than that of the compound before.

Take `COc1ccc(C(C)NC(=S)NCc2ccc(F)cc2)cc1` (configuration not stated): the kinetic solubility was determined as 4.4 µg/mL (≈ 13.8 µM).

For `Clc1ccccc1C1NCc2ccccc2-n2cccc21` (configuration not stated), the solubility (kinetic) was found to be 1.4 µg/mL (≈ 4.75 µM).

Consider `COc1ccccc1N1C(=O)C=C(Sc2nc(C)cc(C)n2)C1=O`, for which the kinetic solubility was 9.1 µg/mL (≈ 26.7 µM). Compared with the last compound, the solubility kinetic is about 6.5-fold higher.

Turning to `Cc1cc(C)n2nc(SC(C)C(=O)N3CC(C)OC(C)C3)nc2n1` (configuration not stated), the kinetic solubility was > 52.4 µg/mL.

For the compound `O=S(=O)(c1ccc(Cl)cc1)N1CCNCC1`, the kinetic solubility is > 39.1 µg/mL.

The compound `COc1ccc2[nH]cc(CCn3ccc(=O)c(C)c3C)c2c1` returned a solubility (kinetic) of 42.2 µg/mL (≈ 142 µM).
